Source: ChEMBL document CHEMBL5465560, “Selectivity Literature for EUbOPEN Chemogenomic Library” (2024)
Numbering of substitutions follows the chain as printed.

How the values were obtained:
[1] = test system: T1, Receptor-type tyrosine-protein kinase FLT3 (Homo sapiens), P36888 [K663Q]; assay: (§1) Selectivity interaction (KinomeScan (DiscoverX)) EUB0000045b FLT3
T1 sequence (whole entry): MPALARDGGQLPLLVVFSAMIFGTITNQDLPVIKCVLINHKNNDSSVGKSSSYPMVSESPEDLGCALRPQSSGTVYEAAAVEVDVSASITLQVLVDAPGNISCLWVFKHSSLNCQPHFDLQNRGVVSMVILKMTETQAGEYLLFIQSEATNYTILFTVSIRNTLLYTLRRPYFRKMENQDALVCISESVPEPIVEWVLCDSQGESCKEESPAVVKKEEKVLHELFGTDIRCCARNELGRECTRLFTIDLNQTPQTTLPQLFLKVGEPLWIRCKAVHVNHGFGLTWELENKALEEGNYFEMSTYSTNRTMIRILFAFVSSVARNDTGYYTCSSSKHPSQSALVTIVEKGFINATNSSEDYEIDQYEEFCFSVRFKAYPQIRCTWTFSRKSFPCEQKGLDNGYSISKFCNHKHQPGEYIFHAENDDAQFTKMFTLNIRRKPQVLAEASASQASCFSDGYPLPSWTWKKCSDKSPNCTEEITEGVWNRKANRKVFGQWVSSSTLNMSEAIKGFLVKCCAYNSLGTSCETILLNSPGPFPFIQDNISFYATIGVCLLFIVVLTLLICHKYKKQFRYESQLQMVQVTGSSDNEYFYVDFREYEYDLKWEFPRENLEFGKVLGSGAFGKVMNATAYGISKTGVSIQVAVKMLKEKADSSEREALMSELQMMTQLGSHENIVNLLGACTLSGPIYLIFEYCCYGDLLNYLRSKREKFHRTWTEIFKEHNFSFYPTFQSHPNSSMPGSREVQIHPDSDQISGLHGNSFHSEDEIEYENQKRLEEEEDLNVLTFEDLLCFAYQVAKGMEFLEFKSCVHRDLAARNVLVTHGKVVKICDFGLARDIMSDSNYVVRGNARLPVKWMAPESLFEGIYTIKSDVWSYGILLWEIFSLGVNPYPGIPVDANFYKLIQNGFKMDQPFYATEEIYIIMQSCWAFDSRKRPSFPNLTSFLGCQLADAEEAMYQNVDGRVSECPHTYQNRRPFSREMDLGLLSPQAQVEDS

[2] = molecular target: Receptor-type tyrosine-protein kinase FLT3 (Homo sapiens) (UniProt P36888); assay: as §1
[3] = test system: T2, Receptor-type tyrosine-protein kinase FLT3 (Homo sapiens), P36888 [R834Q]; assay: as §1
T2 sequence (whole entry): T1 sequence (whole entry) with Q663K, R834Q

[4] = test system: T3, Receptor-type tyrosine-protein kinase FLT3 (Homo sapiens), P36888 [D835H]; assay: as §1
T3 sequence (whole entry): T1 sequence (whole entry) with Q663K, D835H

`C=CC(=O)Nc1cc(-n2c(=O)ccc3cnc4ccc(-c5ccc(NS(C)(=O)=O)cc5)cc4c32)ccc1C` was tested, and the % of control ([1]; at 1 µM) was 100%, the % of control ([1]; at 10 µM) was 100% and the % of control ([2]; at 1 µM) was 80%. It also gave a % of control ([2]; at 10 µM) of 81%, a % of control ([3]; at 1 µM) of 100% and a % of control ([3]; at 10 µM) of 100%. The % of control ([4]; at 1 µM) was 89% and the % of control ([4]; at 10 µM) was 100%.
